Legend:
[1] = test system: high dose LPS (E. coli 026:B6)-induced septic shock in BALB/c mice; test: high dose LPS-induced septic shock, peptide administered twice; type: in vivo; conditions: peptide twice (t = 2 and 24 hours) 5 mg/kg
Description: Mice used in sepsis or septic shock experiments: Female BALB/c mice of eight to twelve weeks of age were used for all experiments. The animals were bred in our facility under specific pathogen-free conditions according to the protocols described in the […] of European Laboratory Animal Science Associations (FELASA) Working group on Animal Health (Laboratory Animals 28:1-24, 1994).
Injection protocols: For the endotoxin model, BALB/c mice were injected i.p. with 150-300 μg LPS (E. coli 026:B6; Difco Lab., Detroit, Mich., USA). Control groups were treated with PBS i.p. only. To test the effect of peptides, they were dissolved in PBS and injected i.p. at predetermined points in time after LPS treatment.
Mice were scored for sickness severity using the following measurement scheme: • 0 No abnormalities. • 1 Percolated fur, but no detectable behavior differences compared to normal mice. • 2 Percolated fur, huddle reflex, responds to stimuli (such as tap on cage), just as active during handling as healthy mouse. • 3 Slower response to tap on cage, passive or docile when handled, but still curious when alone in a new setting. • 4 Lack of curiosity, little or no response to stimuli, quite immobile. • 5 Labored breathing, inability or slow to self-right after being rolled onto back (moribund, sacrificed). • D Dead.
A second set of septic shock experiments were set up to determine which of the peptides LQG, LQGV (SEQ ID NO:117), VLPALP (SEQ ID NO:140), VLPALPQ (SEQ ID NO:143), MTR, MTRV (SEQ ID NO:119), VVC or AQG, AQGV (SEQ ID NO:120), LAG and LAGV (SEQ ID NO:121) were capable of inhibiting high dose LPS-induced septic shock in mice by treating mice with a double dose of peptide at two and 24 hours after LPS treatment. At each treatment, peptides were used at 5 mg/kg bodyweight. BALB/c mice were injected i.p. with high doses LPS (E. coli 026:B6; Difco Lab., Detroit, Mich. USA), predetermined to be leading to 80 to 100% mortality in 24 to 72 hours.

[2] = test system: cell-cycle marker pCDG and auxin-responsive marker DR5::GUS; test: Arabidopsis thaliana seedling cell-cycle analysis (GUS markers); conditions: Results from Examples 9 and 10
Description: To further study anti-cell-cycle activity of various oligopeptides, a proliferation experiment in Arabidopsis Thaliana seedlings was performed. The aim was to test a group of 140 oligopeptides of varying length for their effect on plant marker gene expression during rapid growth when avid cell division occurs.
The peptides were re-suspended in 1× Phosphate Buffer Saline (PBS) pH 8 to a final concentration of 5 mg/ml. The obtained solutions were then divided through 96-well round bottom plates (Corning Incorporated) at 40 microliters per well. Plates were stored before use at […] for four days. Seeds of Arabidopsis thaliana ecotype Ws-0 were surface sterilized in 2% commercial bleach (Gloria) for ten minutes and washed five times with sterile MQ water. The seeds were then re-suspended with 0.1% agar and plated on MS20 plates supplemented with 80 mg/l Kanamycin.
The plates were placed at […] for two nights and then transferred to a climate room at […] and a 16/8 hours photoperiod. After four days of growth, the seedlings were transferred to 96-well plates containing the peptide solutions (four seedlings per well) and incubated for four and eight hours.
For this experiment, Arabidopsis homozygous seedlings harboring two reporter genes fused to GUS were used. […] After incubation with the compounds, the seedlings were stained for GUS. The staining reaction was performed in 100 mM sodium phosphate buffer (pH 7.0) that contained 10 mM EDTA, 10% DMSO, 0.1% Triton X-100, 2 mM X-Gluc, 0.5 mM K3Fe(CN)6 and 0.5 mM K4Fe(CN)6 at […] for 16 hours. […] Seedlings were fixed and cleared in chloral hydrate solution for detailed microscopic observation and photography under a microscope equipped with DIC optics.
Peptides were tested for an effect on marker gene expression on rapidly growing Arabidopsis young seedlings. This was monitored by changes on GUS distribution in different organs: root, root-hypocotyl transition zone and cotyledons.

[3] = test system: renal ischemia reperfusion in mice; test: mouse renal ischemia reperfusion test; type: in vivo; parameters: BUN after 25 minutes renal ischemia, mean / Urea levels in dose-response experiment: unit not given here; conditions: for BUN concentration versus the PBS control group (in words) / mortality versus the PBS control group (in words) / BUN after 25 minutes renal ischemia, mean: 5 mg/kg i.v.; for mortality at 72 hours post-reperfusion: 5 mg/kg i.v. before and after 25 minutes clamping, dead/total
Description: Six oligopeptides (i.e., A: LAGV (SEQ ID NO:121); B: AQGV (SEQ ID NO:120); C: LAG; D: AQG; E: MTR; and F: MTRV (SEO ID NO:119)) were tested and compared with PBS (control) in a double blind animal study for each peptide's relative ability to aid recovery in a mouse renal ischemia reperfusion test. In this test, the mice were anesthetized, and one kidney from each mouse was removed. The other kidney was tied off for 25 minutes, and the serum urea levels were allowed to increase. Both before and after tying off, each of the separate peptides was administered to thirty (30) different mice (5 mg oligopeptide / kg body mass intravenously), after which, the mortality of the mice was determined for each oligopeptide as well as was the BUN concentration at two hours, 24 hours and 72 hours. The results are shown in Table 3 below (excluding the results of peptide A (LAGV (SEQ ID NO:121)) obtained in Example 3).
Under inhalation anesthesia, the left kidney with its artery and vein was isolated and occluded for 25 minutes using a microvascular clamp. During surgery, animals were placed on a heating pad to maintain body temperature at 37° C. Five minutes before placing the clamp, and five minutes before releasing the clamp, 5 mg/kg of peptide dissolved in 0.1 mL of sterile saline, was administered intravenously. After reperfusion of the left kidney, the right kidney was removed. Kidney function was assessed by measuring blood urea nitrogen before clamping, and at 2, 24, and 72 hours after reperfusion.
Peptides were tested at 0.3, 1, 3, 10 and 30 mg/kg dosages given as described in Example 3. P values (calculated by Mann Whitney U-test (SPSS for Windows)) of serum urea levels of PBS compared to peptide D groups at 72 hours post-clamping were at 0.3 mg/kg 0.001, at 1 mg/kg 0.009, at 3 mg/kg 0.02, at 10 mg/kg 0.000, and at 30 mg/kg 0.23; for peptide B (SEQ ID NO:120) groups, these P-values were 0.88, 0.054, 0.000, 0.001 and 0.003.

AQG
mice with sickness score 1, effect at t = 24 hours ([1]; LPS dose 10.5): 2
mice with sickness score 1, effect at t = 48 hours ([1]; LPS dose 10.5): 2
mice with sickness score 2, effect at t = 24 hours ([1]; LPS dose 10.5): 1
mice with sickness score 2, effect at t = 48 hours ([1]; LPS dose 10.5): 3
mice with sickness score 3, effect at t = 24 hours ([1]; LPS dose 10.5): 2
mice with sickness score 1, effect at t = 24 hours ([1]; LPS dose 11): 4
mice with sickness score 2, effect at t = 48 hours ([1]; LPS dose 11): 6
mice with sickness score 3, effect at t = 24 hours ([1]; LPS dose 11): 2
identified as useful peptide for treatment of radiation injury from cell-cycle studies in plants and in vitro proliferation studies [2]: useful
Mortality in dose-response experiment ([3]; 0.3 mg/kg, 24 hours): 0-10
Urea levels in dose-response experiment ([3]; 0.3 mg/kg, 24 hours): 38.4
Mortality in dose-response experiment ([3]; 0.3 mg/kg, 72 hours): 2-8
Urea levels in dose-response experiment ([3]; 0.3 mg/kg, 72 hours): 30.4
Mortality in dose-response experiment ([3]; 1.0 mg/kg, 24 hours): 0-10
Urea levels in dose-response experiment ([3]; 1.0 mg/kg, 24 hours): 48.4
Mortality in dose-response experiment ([3]; 1.0 mg/kg, 72 hours): 1-8
Urea levels in dose-response experiment ([3]; 1.0 mg/kg, 72 hours): 38.4
Mortality in dose-response experiment ([3]; 3.0 mg/kg, 24 hours): 0-10
Urea levels in dose-response experiment ([3]; 3.0 mg/kg, 24 hours): 39.3
Mortality in dose-response experiment ([3]; 3.0 mg/kg, 72 hours): 0-10
Urea levels in dose-response experiment ([3]; 3.0 mg/kg, 72 hours): 40.3
BUN concentration versus the PBS control group (in words) [3]: no reducing effect on BUN concentration
mortality versus the PBS control group (in words) [3]: significant reduction of mortality
mortality at 72 hours post-reperfusion [3]: 4/10
Mortality in dose-response experiment ([3]; 10.0 mg/kg, 24 hours): 0-8
Urea levels in dose-response experiment ([3]; 10.0 mg/kg, 24 hours): 46.8
Mortality in dose-response experiment ([3]; 10.0 mg/kg, 72 hours): 1-10
Urea levels in dose-response experiment ([3]; 10.0 mg/kg, 72 hours): 25.8
Mortality in dose-response experiment ([3]; 30.0 mg/kg, 24 hours): 0-8
Urea levels in dose-response experiment ([3]; 30.0 mg/kg, 24 hours): 52.8
Mortality in dose-response experiment ([3]; 30.0 mg/kg, 72 hours): 1-8
Urea levels in dose-response experiment ([3]; 30.0 mg/kg, 72 hours): 58.9
BUN after 25 minutes renal ischemia, mean ([3]; 2 hours after reperfusion): 17.7
BUN after 25 minutes renal ischemia, mean ([3]; 24 hours after reperfusion): 66.76
BUN after 25 minutes renal ischemia, mean ([3]; 72 hours after reperfusion): 91.18
BUN levels in dose-response experiment (in words) ([3]; lower dosages tested (0.3-30 mg/kg range), compared with peptide B): did reduce BUN levels surprisingly well at the lower dosages tested
BUN after 25 minutes renal ischemia, mean ([3]; t = 0 hr (before clamping)): 9.304

LAG
mice scored D (dead), effect at t = 48 hours ([1]; LPS dose 10.5): 6
mice with sickness score 5, effect at t = 24 hours ([1]; LPS dose 10.5): 5
mice scored D (dead), effect at t = 48 hours ([1]; LPS dose 11): 6
mice with sickness score 5, effect at t = 24 hours ([1]; LPS dose 11): 6
identified as useful peptide for treatment of radiation injury from cell-cycle studies in plants and in vitro proliferation studies [2]: useful
BUN concentration versus the PBS control group (in words) [3]: no reducing effect on BUN concentration
mortality versus the PBS control group (in words) [3]: significant reduction of mortality
mortality at 72 hours post-reperfusion [3]: 4/10
BUN after 25 minutes renal ischemia, mean ([3]; 2 hours after reperfusion): 18.13
BUN after 25 minutes renal ischemia, mean ([3]; 24 hours after reperfusion): 59.24
BUN after 25 minutes renal ischemia, mean ([3]; 72 hours after reperfusion): 74.4
BUN after 25 minutes renal ischemia, mean ([3]; t = 0 hr (before clamping)): 10.15
